The NIST ThermoML archive (doi:10.1021/acs.jced.8b00452)
Several values for one entry are separate records, joined by “and”; a condition that tells them apart may be missing. Equal entries are not always repeated.

Conditions: isochoric method

C=CC(F)(F)F [1,1,1-trifluoro-2-propene]
Conditions | mass density [kg/m3]
328 K, 2263.6 kPa, Liquid | 899.4
330 K, 1111.5 kPa, Gas | 50
330 K, 3005.2 kPa, Liquid | 899.2
333 K, 4120.1 kPa, Liquid | 899
335 K, 4863.3 kPa, Liquid | 898.9
338 K, 5981.5 kPa, Liquid | 898.8
340 K, 1167.6 kPa, Gas | 49.9
340 K, 6726 kPa, Liquid | 898.7
348 K, 2175.9 kPa, Liquid | 796.5
349 K, 2433.4 kPa, Liquid | 796.4
350 K, 1222.4 kPa, Gas | 49.9
350 K, 2692.4 kPa, Liquid | 796.4
351 K, 2951.1 kPa, Liquid | 796.4
352 K, 3211.8 kPa, Liquid | 796.4
353 K, 3472 kPa, Liquid | 796.3
354 K, 3732.3 kPa, Liquid | 796.3
355 K, 2036.4 kPa, Gas | 99.8
355 K, 3993.5 kPa, Liquid | 796.3
356 K, 4255.7 kPa, Liquid | 796.3
357 K, 4517.5 kPa, Liquid | 796.2
358 K, 4781.3 kPa, Liquid | 796.2
360 K, 1276.2 kPa, Gas | 49.9
360 K, 2101.2 kPa, Gas | 99.8
360 K, 5309.1 kPa, Liquid | 796.2
362 K, 5836.4 kPa, Liquid | 796.1
364 K, 2872 kPa, Fluid (supercritical or subcritical phases) | 699.8
364 K, 6364.7 kPa, Liquid | 796.1
366 K, 3226.1 kPa, Fluid (supercritical or subcritical phases) | 699.8
366 K, 6895.5 kPa, Liquid | 796
368 K, 3583.4 kPa, Fluid (supercritical or subcritical phases) | 699.7
370 K, 1329.2 kPa, Gas | 49.9
370 K, 2227.8 kPa, Gas | 99.8
370 K, 3943.7 kPa, Fluid (supercritical or subcritical phases) | 699.7
372 K, 4306.9 kPa, Fluid (supercritical or subcritical phases) | 699.7
374 K, 4672.5 kPa, Fluid (supercritical or subcritical phases) | 699.6
376 K, 5040.5 kPa, Fluid (supercritical or subcritical phases) | 699.6
378 K, 5410 kPa, Fluid (supercritical or subcritical phases) | 699.5
379 K, 3659.3 kPa, Gas | 408.6
380 K, 1381.9 kPa, Gas | 49.9
380 K, 2351.3 kPa, Gas | 99.8
380 K, 3350.9 kPa, Gas | 199.9
380 K, 3727.7 kPa, Gas | 408.6
380 K, 5781.1 kPa, Fluid (supercritical or subcritical phases) | 699.5
382 K, 6153.3 kPa, Fluid (supercritical or subcritical phases) | 699.5
384 K, 6527.3 kPa, Fluid (supercritical or subcritical phases) | 699.4
385 K, 3499.4 kPa, Gas | 199.9
385 K, 4070.4 kPa, Gas | 408.5
386 K, 6902.3 kPa, Fluid (supercritical or subcritical phases) | 699.4
390 K, 1433.6 kPa, Gas | 49.9
390 K, 2472.5 kPa, Gas | 99.7
390 K, 3645.5 kPa, Gas | 199.8
390 K, 4415.7 kPa, Gas | 408.4
395 K, 3789.8 kPa, Gas | 199.8
395 K, 4762.2 kPa, Gas | 408.3
400 K, 1484.4 kPa, Gas | 49.8
400 K, 2591.1 kPa, Gas | 99.7
400 K, 3931.9 kPa, Gas | 199.7
400 K, 5109.3 kPa, Gas | 408.2
405 K, 4073 kPa, Gas | 199.7
405 K, 5458.7 kPa, Gas | 408.1
410 K, 1534.9 kPa, Gas | 49.8
410 K, 2708 kPa, Gas | 99.6
410 K, 4212.5 kPa, Gas | 199.6
410 K, 5806.1 kPa, Gas | 407.9
415 K, 4350.8 kPa, Gas | 199.5
415 K, 6157.7 kPa, Gas | 407.7
420 K, 1584.7 kPa, Gas | 49.7
420 K, 2823 kPa, Gas | 99.5
420 K, 4487.8 kPa, Gas | 199.4
420 K, 6507.1 kPa, Gas | 407.5
425 K, 4623.8 kPa, Gas | 199.2
425 K, 6857.2 kPa, Gas | 407.2
430 K, 1633.5 kPa, Gas | 49.7
430 K, 2936 kPa, Gas | 99.3
430 K, 4758.7 kPa, Gas | 199.1

mass density
Conditions | Gas | Liquid
360.73 K | – | 723.7 kg/m3
366.5 K | 182.7 kg/m3 | –
369.78 K | 205.8 kg/m3 | –
369.83 K | – | 644 kg/m3
371.67 K | 231.2 kg/m3 | –
371.85 K | – | 616.3 kg/m3
374.16 K | – | 571.5 kg/m3
374.31 K | 255.3 kg/m3 | –
375.35 K | 287.6 kg/m3 | –
376.38 K | – | 508.8 kg/m3
376.41 K | 323.1 kg/m3 | –
376.87 K | – | 451.6 kg/m3
376.93 K | 408.8 kg/m3 and 414.2 kg/m3 | 414.2 kg/m3
